Our source for the IC50, Ratio and MED values is ChEMBL document CHEMBL3046304, “Discovery of a series of novel compounds with moderate anti-avian H5N1 influenza virus activity in chick embryo” (Med Chem Res, 2013).

The target in assay [1] is T1, Neuraminidase (Influenza A virus, UniProt B4URF0). Also noted: species or system (A/chicken/Shandong/LY/2008(H9N2)).
Assay [2] addresses T1, Neuraminidase. Also noted: species or system (A/duck/China/QJ/01(H5N1)).
In assay [3] the test system is Influenza A virus. In words: Ratio of compound MED to oseltamivir carboxylate MED for influenza A virus (A/duck/China/QJ/01(H5N1)) infected in chick embryo measured after 5 days by hemagglutination assay. Type of assay: functional.
For assay [4], the system named is Influenza A virus. The assay is described as follows: Ratio of compound MED to oseltamivir MED for influenza A virus (A/duck/China/QJ/01(H5N1)) infected in chick embryo measured after 5 days by hemagglutination assay. Type of assay: functional.
Assay [5] has as its system Influenza A virus. Type of assay: functional.
A short description of assay [6]: Inhibition of neuraminidase.

T1 sequence (B4URF0 whole entry): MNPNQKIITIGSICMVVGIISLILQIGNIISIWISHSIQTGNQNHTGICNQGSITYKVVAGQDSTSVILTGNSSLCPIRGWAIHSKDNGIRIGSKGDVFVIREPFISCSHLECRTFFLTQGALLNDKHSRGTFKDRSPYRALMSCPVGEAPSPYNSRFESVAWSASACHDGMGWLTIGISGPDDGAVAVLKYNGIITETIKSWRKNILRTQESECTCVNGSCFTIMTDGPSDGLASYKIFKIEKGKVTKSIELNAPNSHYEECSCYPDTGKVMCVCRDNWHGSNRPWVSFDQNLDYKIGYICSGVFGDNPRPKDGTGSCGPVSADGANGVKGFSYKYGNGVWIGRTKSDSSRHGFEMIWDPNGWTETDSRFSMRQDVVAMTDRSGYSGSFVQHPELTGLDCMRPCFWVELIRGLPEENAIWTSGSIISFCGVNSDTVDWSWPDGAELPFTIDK

What is called IC50 is the concentration at which inhibition is half-maximal. In the case of `CC[C@H](C)[C@H](N)C(=O)Nc1cc(NC(=O)/C=C/c2ccc(O)c(O)c2)ccc1O.Cl`, the IC50 in assay [1] stood at 0.0017 µM; in assay [2], 0.012 µM. In addition, the Ratio in assay [3] and in assay [4] was 4 in each case. This compound registered an MED in assay [5] of 2.5 µM.

In the case of `Cl.N[C@@H](CO)C(=O)Nc1cc(NC(=O)/C=C/c2ccco2)ccc1O`, the IC50 in assay [1] is 158 µM; in assay [2], 143 µM. The Ratio in assay [3] and in assay [4] was 4 in each case. The compound further displayed an MED in assay [5] of 5 µM.

Take `C[C@@H](O)[C@H](N)C(=O)Nc1cc(NC(=O)/C=C/c2ccco2)ccc1O.Cl`: the IC50 was 200 µM in assay [1] and 187 µM in assay [2]. Besides, the Ratio in assay [3] and in assay [4] was 4 each time. Further, the MED in assay [5] came out at 5 µM.

With `Cl.NCCC(=O)Nc1cc(NC(=O)/C=C/c2ccco2)ccc1O`, the results for the IC50 in assay [1] and in assay [2] were 118 µM and 108 µM, respectively. Besides, the Ratio in assay [3] and in assay [4] was 4 throughout. Further, the MED in assay [5] came out at 5 µM.

In turn, `NC(Cn1ccc(=O)c(O)c1)C(=O)N[C@@H](Cc1ccc(O)cc1)C(=O)O` (stereo partly specified) gave an IC50 in assay [6] of 2800 nM.

With `Cl.NCC(=O)Nc1cc(NC(=O)/C=C/c2ccco2)ccc1O`, the IC50 in assay [1] turned out to be 175 µM; in assay [2], 139 µM. Further, the Ratio in assay [3] and in assay [4] was 4 throughout. For the same compound, in assay [5], the MED was 5 µM.

With `O=c1cc(-c2ccc(O)cc2)oc2cc(O)cc(O)c12` [APIGENIN], the Ratio in assay [3] and in assay [4] was 4 each time.

Consider `CC(C)[C@H](N)C(=O)Nc1cc(NC(=O)/C=C/c2ccc(O)c(O)c2)ccc1O.Cl`, for which the concentration for half-maximal inhibition (IC50) stood at 138 µM in assay [1] and 114 µM in assay [2]. Further, the Ratio in assay [3] and in assay [4] was 4 each time. The compound also returned an MED in assay [5] of 2.5 µM.

Regarding `CC(C)C[C@H](N)C(=O)Nc1cc(NC(=O)/C=C/c2ccc(O)c(O)c2)ccc1O.Cl`, the IC50 in assay [1] is 154 µM; in assay [2], 135 µM. The Ratio in assay [3] and in assay [4] was 4 each time. Moreover, in assay [5], the MED was determined as 2.5 µM.

`C[C@H](N)C(=O)Nc1cc(NC(=O)/C=C/c2ccc(O)c(O)c2)ccc1O.Cl`: the IC50 in assay [1] is 105 µM; in assay [2], 113 µM. The Ratio in assay [3] and in assay [4] was 4 in each case. Moreover, the MED in assay [5] was 5 µM.

`NC(Cn1ccc(=O)c(O)c1)C(=O)N[C@@H](Cc1ccccc1)C(=O)O` (stereo partly specified) had an IC50 in assay [6] of 1800 nM. In other words, the single-digit micromolar range.

With `Cl.O=C(/C=C/c1ccco1)Nc1ccc(O)c(NC(=O)[C@@H]2C[C@@H](O)CN2)c1`, the IC50 in assay [1] is 111 µM; in assay [2], 109 µM. The Ratio in assay [3] and in assay [4] was 4 each time. This compound also returned an MED in assay [5] of 5 µM.

`CCC(CC)O[C@@H]1C=C(C(=O)O)C[C@H](N)[C@H]1NC(C)=O.Cl` [OSELTAMIVIR CARBOXYLATE HYDROCHLORIDE] showed an MED in assay [5] of 0.625 µM.

For `C[C@H](N)C(=O)Nc1cc(NC(=O)/C=C/c2ccco2)ccc1O.Cl`, the IC50 came out at 91.7 µM in assay [1] and 110 µM in assay [2]. In addition, the Ratio in assay [3] and in assay [4] was 4 each time. The MED in assay [5] worked out at 5 µM.

On to `Cl.N=C(NCCC[C@H](N)C(=O)Nc1cc(NC(=O)/C=C/c2ccco2)ccc1O)N[N+](=O)[O-]`, for which the IC50 in assay [1] was 193 µM; in assay [2], 192 µM. The Ratio in assay [3] and in assay [4] was 4 throughout. For the same compound, the MED in assay [5] stood at 5 µM.

Regarding `CC(C)C[C@H](N)C(=O)Nc1cc(NC(=O)/C=C/c2ccco2)ccc1O.Cl`, the IC50 in assay [1] stood at 179 µM; in assay [2], 148 µM. For the same compound, the Ratio in assay [3] and in assay [4] was 4 throughout. This compound displayed an MED in assay [5] of 5 µM.

Take `Cl.NCCCC(=O)Nc1cc(NC(=O)/C=C/c2ccco2)ccc1O`: the IC50 came out at 167 µM in assay [1] and 132 µM in assay [2]. The Ratio in assay [3] and in assay [4] was 4 each time. In assay [5], this compound registered an MED of 5 µM.

In the case of `Cl.N[C@@H](Cc1ccccc1)C(=O)Nc1cc(NC(=O)/C=C/c2ccco2)ccc1O`, the IC50 in assay [1] is 143 µM; in assay [2], 130 µM. The Ratio in assay [3] and in assay [4] was 4 in each case. This compound came in with an MED in assay [5] of 5 µM.

In the case of `CC[C@H](C)[C@H](N)C(=O)Nc1cc(NC(=O)/C=C/c2ccco2)ccc1O.Cl`, the IC50 stood at 119 µM in assay [1] and 103 µM in assay [2]. The Ratio in assay [3] and in assay [4] was 4 each time. The compound also gave an MED in assay [5] of 2.5 µM.

Regarding `Cl.NCCCC[C@H](N)C(=O)Nc1cc(NC(=O)/C=C/c2ccco2)ccc1O`, the figures for the IC50 in assay [1] and in assay [2] were 215 µM and 225 µM, respectively. The Ratio in assay [3] and in assay [4] was 4 throughout. This compound came in with an MED in assay [5] of 5 µM.

`Cl.O=C(/C=C/c1ccco1)Nc1ccc(O)c(NC(=O)[C@@H]2CCCN2)c1`: the values for the IC50 in assay [1] and in assay [2] were 85.3 µM and 57.8 µM, respectively. The Ratio in assay [3] and in assay [4] was 4 in each case. The same compound yielded an MED in assay [5] of 5 µM.

Regarding `Cl.N[C@@H](Cc1c[nH]c2ccccc12)C(=O)Nc1cc(NC(=O)/C=C/c2ccco2)ccc1O`, the IC50 in assay [1] is 194 µM; in assay [2], 189 µM. Further, the Ratio in assay [3] and in assay [4] was 4 throughout. Besides, the MED in assay [5] was determined as 2.5 µM.

In the case of `CC(C)[C@H](N)C(=O)Nc1cc(NC(=O)/C=C/c2ccco2)ccc1O.Cl`, the figures for the IC50 in assay [1] and in assay [2] were 165 µM and 175 µM, respectively. In addition, the Ratio in assay [3] and in assay [4] was 4 in each case. Besides, the MED in assay [5] was determined as 2.5 µM.

For `CCOC(=O)C1=C[C@@H](OC(CC)CC)[C@H](NC(C)=O)[C@@H](N)C1.O=P(O)(O)O` [OSELTAMIVIR PHOSPHATE], the MED in assay [5] is 0.625 µM.

In the case of `CSCC[C@H](N)C(=O)Nc1cc(NC(=O)/C=C/c2ccco2)ccc1O.Cl`, the figures for the IC50 in assay [1] and in assay [2] were 144 µM and 121 µM, respectively. For the same compound, the Ratio in assay [3] and in assay [4] was 4 throughout. This compound also had an MED in assay [5] of 5 µM.
